In data set [1] the target is T1, rabbit PXR (Oryctolagus cuniculus, UniProt Q9TU02).
T1 sequence (Q9TU02 1-411): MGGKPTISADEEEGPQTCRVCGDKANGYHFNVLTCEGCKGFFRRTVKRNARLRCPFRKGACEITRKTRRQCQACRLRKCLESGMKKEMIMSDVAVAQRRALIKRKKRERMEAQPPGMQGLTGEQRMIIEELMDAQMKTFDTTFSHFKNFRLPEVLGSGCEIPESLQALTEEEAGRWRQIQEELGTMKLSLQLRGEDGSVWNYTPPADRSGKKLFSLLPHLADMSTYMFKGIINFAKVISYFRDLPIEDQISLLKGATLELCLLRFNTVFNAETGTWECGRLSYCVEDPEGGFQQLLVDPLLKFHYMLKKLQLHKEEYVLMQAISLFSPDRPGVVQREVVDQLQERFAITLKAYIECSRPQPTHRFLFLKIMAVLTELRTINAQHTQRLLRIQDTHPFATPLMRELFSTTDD
As to conditions: read-out: EC50, activation of rabbit PXR; cited from earlier work.

The target of data set [2] is T2, mouse PXR (Mus musculus, UniProt O54915).
T2 sequence (O54915 1-431): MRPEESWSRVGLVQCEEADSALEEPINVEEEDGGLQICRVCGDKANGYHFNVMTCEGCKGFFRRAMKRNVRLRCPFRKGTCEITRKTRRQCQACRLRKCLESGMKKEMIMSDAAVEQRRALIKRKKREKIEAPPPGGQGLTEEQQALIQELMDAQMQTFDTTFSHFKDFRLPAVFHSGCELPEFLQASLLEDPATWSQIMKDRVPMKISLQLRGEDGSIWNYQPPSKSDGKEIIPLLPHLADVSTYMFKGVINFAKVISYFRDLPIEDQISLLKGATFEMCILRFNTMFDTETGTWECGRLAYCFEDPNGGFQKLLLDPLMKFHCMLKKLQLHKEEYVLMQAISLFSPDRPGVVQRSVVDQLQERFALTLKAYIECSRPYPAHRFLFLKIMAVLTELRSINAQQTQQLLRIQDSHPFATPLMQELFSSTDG
Particulars: cited from earlier work.

Data set [3] has as its system CYP3A4. Particulars: rat hepatocytes; cited from earlier work.
In data set [4] the target is T3, rat PXR (Rattus norvegicus, UniProt Q9R1A7).
T3 sequence (Q9R1A7 1-431): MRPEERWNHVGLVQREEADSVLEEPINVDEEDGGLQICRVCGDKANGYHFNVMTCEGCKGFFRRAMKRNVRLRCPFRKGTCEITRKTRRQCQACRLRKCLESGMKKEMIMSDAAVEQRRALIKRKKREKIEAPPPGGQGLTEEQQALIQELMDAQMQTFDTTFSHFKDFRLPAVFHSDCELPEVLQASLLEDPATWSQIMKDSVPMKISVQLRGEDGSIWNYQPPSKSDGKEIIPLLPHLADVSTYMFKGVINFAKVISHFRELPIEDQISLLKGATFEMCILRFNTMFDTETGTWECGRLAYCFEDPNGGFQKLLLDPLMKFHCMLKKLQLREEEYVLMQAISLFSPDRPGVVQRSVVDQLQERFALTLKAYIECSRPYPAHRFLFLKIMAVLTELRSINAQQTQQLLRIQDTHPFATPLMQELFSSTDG
As to conditions: cited from earlier work.

Data set [5] is described as follows: Thermodynamic equilibrium solubility. As to conditions: for solubility: 25 °C, thermodynamic from solid. In kind it is physicochemical. How it is done: The compounds were first dissolved in methanol to prepare stock solutions (100 and 1000 μg/mL). Different concentrations of stock solutions were pipetted into the 96-well plates and the solvent was evaporated to ensure that solid drug was present in the beginning of the experiment. […] The plates were kept overnight for equilibration of drug in medium. Later, the plates were centrifuged at 3000 rpm for 15 min (Jouan centrifuge BR4i). Supernatant (50 μl) was pipetted into UV 96-well plates (Corning® 96 Well Clear Flat Bottom UV-Transparent Microplate) for analyses with plate reader (SpectraMax Plus384) at λmax of 350 nm. The analyses were performed in triplicate for each compound. The solubility curve of concentration (ng/mL) vs absorbance was plotted to find out saturation point and the corresponding concentration was noted.

In data set [6] the target is HMG-Co A reductase. Particulars: HepG2 (hepatocellular carcinoma) cells; read-out: IC50, reduction of HMG-Co A reductase activity; cited from earlier work.
Data set [7] deals with P-glycoprotein (Pgp) in LS-180 cells. The data set can be described thus: Pgp-induction assay, rhodamine123 (Rh123) cell exclusion method. It is filed as cell-based. Particulars: for EC50: LS180 cells treated 48 h, Rh123 fluorescence vs concentration. The protocol:
All synthesized compounds were screened for their ability to induce Pgp using rhodamine123 (Rh123) cell exclusion method. In this method, the Pgp function was evaluated in terms of rhodamine 123 (Rh123) accumulations and efflux. Briefly, the protocol used is as follows: Colorectal LS-180 cells [obtained from ECACC (European Collection of Cell Cultures) catalogue number: 87021202; passage number 52] were seeded at a density of 2×10^4 per well of 96 well plate and were allowed to grow for next 24 h. Cells were further incubated with the test compounds, and were diluted to a final concentration of 100 nM and rifampicin (standard) to a final concentration of 10 μM in complete media for 48 h. The final concentration of DMSO was kept at 0.1%. Drugs were removed and cells were incubated with HANKS buffer for 40 minutes before further incubation with HANKS buffer (containing 10 μM of Rh123 as a Pgp substrate) for 90 minutes. At the end of Rh123 treatment cells were washed four times with cold PBS followed by cell lysis for 1 h by using 200 μl of lysis buffer (0.1% Triton X-100 and 0.2 N NaOH). A total of 100 μl of lysate was used for reading fluorescence of Rh123 at 485 nm/529 nm. Samples were normalized by dividing fluorescence of each sample with total protein present in the lysate. For EC50 determination, different concentrations of compound were used to treat LS180 cells for 48 h. The EC50 value was determined by plotting fluoroscence of Rh123 against concentration of compound.

Data set [8] concerns p-glycoprotein expression in LS-180 cells. The data set is described as follows: Western blot analysis of Pgp expression. In kind it is cell-based. The protocol: Protein was measured employing Bio-Rad protein assay kit using bovine serum albumin as standard. Proteins aliquots (70 μg) were resolved on SDS-PAGE and then electro transferred to PVDF membrane overnight at 4° C. at 30V. Nonspecific binding was blocked by incubation with 5% non-fat milk in Tris-buffered saline containing 0.1% Tween-20 (TBST) for 1 h at room temperature. The blots were probed with anti-Pgp antibody for 4 h and washed three times with TBST. Blot was then incubated with horseradish peroxidase conjugated antimouse secondary antibody for 1 h, washed again three times with TBST and signals detected using ECL plus chemiluminescence's kit on BioRad ChemiDoc XRS system.

In brackets after ≈: the same amount, converted by molar mass. Entries after “also recorded” stand apart in the source; their conditions may differ. Where two headings read alike, the source gives them in different places.

As a reminder, the EC50 is the midpoint of the concentration-response curve. The solubility is the dissolved amount per volume that the medium holds. Broadly, the IC50 is the concentration that gives 50% inhibition.

As to `CCOP(=O)(OCC)C(=Cc1cc(C(C)(C)C)c(O)c(C(C)(C)C)c1)P(=O)(OCC)OCC` [Compound 1a], the EC50 in data set [1] is approximately 700 nM; in data set [7], 2.04 nM. Further, the “activation of mouse PXR” value in data set [2] is “very weak activator”. Besides, the CYP3A4 protein levels entry in data set [3] is “increase CYP3A4 protein levels”. For the same compound, the “activation of rat PXR” value in data set [4] is “very weak activator”. For the same compound, the solubility is 200 µg/mL (≈ 396 µM) in data set [5] (water, 25±1° C., read-out: Solubility, Water); 200 µg/mL (≈ 396 µM) in data set [5] (phosphate buffer saline (PBS), aqueous buffer, read-out: Solubility, PBS); 200 µg/mL (≈ 396 µM) in data set [5] (simulated gastric fluid (SGF), simulated gastric fluid, read-out: Solubility, SGF); 200 µg/mL (≈ 396 µM) in data set [5] (simulated intestinal fluid (SIF), fassgf or other biorelevant, read-out: Solubility, SIF). Further, in data set [6], the IC50 was 850 nM.
With `CCOP(=O)(OCC)C(=Cc1c2ccccc2cc2ccccc12)P(=O)(OCC)OCC` [Compound 1l, Tetraethyl 2-(anthracene-10-yl) ethene-1,1-diyldiphosphonate], the “p-glycoprotein expression (Western blot)” value in data set [8] is “induces p-glycoprotein expression”. For the same compound, in data set [5] (phosphate buffer saline (PBS)), the “Solubility, PBS” value is more than 1500 µg/mL. Besides, in data set [5] (simulated gastric fluid (SGF)), the “Solubility, SGF” value was more than 1500 µg/mL. Moreover, in data set [5] (simulated intestinal fluid (SIF)), the “Solubility, SIF” value was more than 1500 µg/mL. For the same compound, in data set [5] (water and biological fluids), the solubility in words result is “optimal solubility”. In addition, the “Solubility, Water” value in data set [5] (water, 25±1° C.) amounted to 400 µg/mL (≈ 840 µM). In data set [7], the midpoint of the response, the EC50, lay at 0.9 nM. Besides, the “Pgp induction as decrease in % intracellular levels of rhodamine 123” value in data set [7] (LS-180 cells, test compounds 100 nM, 48 h) is “decreased; also recorded: promising induction of p-glycoprotein”. For the same compound, in data set [7] (Pgp induction EC50, LS180 cells), the “fold difference of EC50 versus SR12813 (1a)” value is 2 fold.
